The text below walks through data of article PMC10641818, “Development of First-in-Class Dual Sirt2/HDAC6 Inhibitors as Molecular Tools for Dual Inhibition of Tubulin Deacetylation” (Journal of Medicinal Chemistry, 2023).

A value given as a limit tells only on which side of the number the result lay.

One test has as its target T1, Sirt5 (Homo sapiens, UniProt Q9NXA8).
T1 sequence (Q9NXA8 37-310): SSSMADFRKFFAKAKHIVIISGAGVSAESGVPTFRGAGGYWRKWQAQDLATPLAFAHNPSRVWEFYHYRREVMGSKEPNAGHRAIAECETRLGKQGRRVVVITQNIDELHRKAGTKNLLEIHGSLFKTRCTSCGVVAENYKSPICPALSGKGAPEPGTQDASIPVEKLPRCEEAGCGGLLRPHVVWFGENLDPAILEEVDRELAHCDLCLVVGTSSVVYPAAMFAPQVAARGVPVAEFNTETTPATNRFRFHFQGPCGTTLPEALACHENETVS
Briefly: Sirt5 in vitro deacylation HPLC assay. In kind it is biochemical.

A further test deals with Sirt6 (Homo sapiens, UniProt Q8N6T7). Briefly: Sirt6 in vitro deacylation HPLC assay. In kind it is biochemical.
Chain of Sirt6 (Q8N6T7 whole entry, species assumed): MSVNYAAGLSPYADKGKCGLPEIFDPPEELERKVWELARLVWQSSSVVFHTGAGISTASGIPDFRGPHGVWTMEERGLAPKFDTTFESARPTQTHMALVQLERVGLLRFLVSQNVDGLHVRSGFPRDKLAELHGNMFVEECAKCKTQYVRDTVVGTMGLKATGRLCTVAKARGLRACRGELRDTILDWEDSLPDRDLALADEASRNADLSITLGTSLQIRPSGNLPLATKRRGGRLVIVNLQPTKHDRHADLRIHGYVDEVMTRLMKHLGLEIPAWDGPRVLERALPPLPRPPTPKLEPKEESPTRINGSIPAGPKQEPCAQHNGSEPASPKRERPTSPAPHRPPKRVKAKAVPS
The next test has as its target HDAC5 (Homo sapiens, UniProt Q9UQL6). The test is described as follows: HDAC5 continuous fluorescence deacylation assay. In kind it is biochemical.
Another test deals with HDAC8 (Homo sapiens, UniProt Q9BY41). The test is described as follows: HDAC8 in vitro deacylation assay (ZMTFAL). In kind it is biochemical.
Chain of HDAC8 (Q9BY41 whole entry, species assumed): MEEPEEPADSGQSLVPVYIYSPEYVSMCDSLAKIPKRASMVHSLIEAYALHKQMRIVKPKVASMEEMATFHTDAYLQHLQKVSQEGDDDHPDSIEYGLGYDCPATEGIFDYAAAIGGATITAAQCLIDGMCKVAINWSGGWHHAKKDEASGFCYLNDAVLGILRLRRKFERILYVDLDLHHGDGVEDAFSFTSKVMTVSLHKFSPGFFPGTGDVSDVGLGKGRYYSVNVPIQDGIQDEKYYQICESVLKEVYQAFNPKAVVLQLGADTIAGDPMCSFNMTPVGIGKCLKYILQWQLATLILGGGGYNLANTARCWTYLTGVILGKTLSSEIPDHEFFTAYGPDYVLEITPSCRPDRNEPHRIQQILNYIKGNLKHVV
The next test deals with HDAC9 (Homo sapiens, UniProt Q9UKV0). Briefly: HDAC9 continuous fluorescence deacylation assay. The format is biochemical.
Chain of HDAC9 (Q9UKV0 whole entry, species assumed): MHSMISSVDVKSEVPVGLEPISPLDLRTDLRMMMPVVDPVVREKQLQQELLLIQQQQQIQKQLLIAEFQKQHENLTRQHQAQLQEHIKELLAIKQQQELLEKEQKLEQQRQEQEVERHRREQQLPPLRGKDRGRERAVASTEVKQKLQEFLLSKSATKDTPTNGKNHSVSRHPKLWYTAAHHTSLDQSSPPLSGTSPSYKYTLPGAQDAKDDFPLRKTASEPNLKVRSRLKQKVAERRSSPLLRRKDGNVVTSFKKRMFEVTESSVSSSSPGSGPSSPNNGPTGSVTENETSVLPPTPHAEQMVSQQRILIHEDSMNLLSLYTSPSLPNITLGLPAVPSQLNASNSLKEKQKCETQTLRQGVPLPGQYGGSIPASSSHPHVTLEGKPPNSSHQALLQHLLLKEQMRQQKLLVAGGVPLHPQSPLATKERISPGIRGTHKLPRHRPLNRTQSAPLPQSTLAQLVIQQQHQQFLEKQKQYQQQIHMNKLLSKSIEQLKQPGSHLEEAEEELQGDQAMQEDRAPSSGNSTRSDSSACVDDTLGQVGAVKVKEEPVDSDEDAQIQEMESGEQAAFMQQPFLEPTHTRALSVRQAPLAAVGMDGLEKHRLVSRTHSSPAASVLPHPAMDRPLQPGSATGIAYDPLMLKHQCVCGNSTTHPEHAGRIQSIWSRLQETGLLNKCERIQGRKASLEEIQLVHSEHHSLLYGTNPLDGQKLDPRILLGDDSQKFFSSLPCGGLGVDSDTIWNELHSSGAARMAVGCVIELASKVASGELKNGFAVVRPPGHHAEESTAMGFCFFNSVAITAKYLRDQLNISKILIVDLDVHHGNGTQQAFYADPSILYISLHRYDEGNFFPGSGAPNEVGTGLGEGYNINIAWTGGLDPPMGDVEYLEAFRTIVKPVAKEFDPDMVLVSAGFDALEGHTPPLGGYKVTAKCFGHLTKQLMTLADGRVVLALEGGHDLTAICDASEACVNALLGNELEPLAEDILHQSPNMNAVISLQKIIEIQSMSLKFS
Another test deals with T2, HDAC10 (Homo sapiens, UniProt Q969S8).
T2 sequence (Q969S8 1-669): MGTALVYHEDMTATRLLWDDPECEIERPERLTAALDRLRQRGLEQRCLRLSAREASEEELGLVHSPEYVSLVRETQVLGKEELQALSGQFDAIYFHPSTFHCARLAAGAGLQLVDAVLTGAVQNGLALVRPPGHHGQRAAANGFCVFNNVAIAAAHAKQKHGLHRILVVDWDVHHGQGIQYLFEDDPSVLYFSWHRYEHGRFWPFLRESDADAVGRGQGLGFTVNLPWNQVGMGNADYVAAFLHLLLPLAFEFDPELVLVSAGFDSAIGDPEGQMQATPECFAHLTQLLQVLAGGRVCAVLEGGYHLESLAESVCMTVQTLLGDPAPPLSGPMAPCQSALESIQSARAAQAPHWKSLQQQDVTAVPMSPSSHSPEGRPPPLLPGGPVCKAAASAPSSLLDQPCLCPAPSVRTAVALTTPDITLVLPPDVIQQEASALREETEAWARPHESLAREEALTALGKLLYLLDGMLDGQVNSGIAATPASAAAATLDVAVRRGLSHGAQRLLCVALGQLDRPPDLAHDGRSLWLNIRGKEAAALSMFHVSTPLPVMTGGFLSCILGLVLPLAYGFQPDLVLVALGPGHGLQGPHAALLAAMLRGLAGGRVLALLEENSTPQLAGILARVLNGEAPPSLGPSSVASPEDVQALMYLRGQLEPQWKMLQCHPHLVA
The test is described as follows: HDAC10 continuous fluorescence deacylation assay. In kind it is biochemical.

Test [1] concerns histone H3 acetylation (marker of HDAC1-3 inhibition). Briefly: Western blot on histone H3 hyperacetylation in MCF-7 cells. In kind it is cell-based. The conditions noted are these: 24 h, 10 µM. The method, then:
Western blots on histone H3 hyperacetylation in MCF-7 cells were performed according to a previously published protocol.[72] In brief, MCF-7 were centrifuged (450g, 4 min, 22 °C) and lysed with cell extraction buffer (Thermo Fisher), supplemented with 0.1 mM PMSF, Halt Protease Inhibitor (Thermo Fisher), and Natriumorthovanadat (Thermo Fisher). Precast gels with a polymerization degree of 4–15% were used (Mini-PROTEAN TGX Stain-Free; Bio-Rad Laboratories GmbH, Munich, Germany). Proteins were transferred to Trans-Blot Turbo-PVDF membrane (Bio-Rad). The membrane was blocked with skimmed milk powder in Tris-buffered saline-Tween 20 (with 0.2% Tween 20) for 60 min, followed by three washing cycles of 10 min using Tris-buffered saline-Tween 20. Afterward, membranes were incubated with primary antibodies for ac.-Histon H3 (Cell Signal, rabbit) and GAPDH (Gene Tex, Irvine, USA, mouse) for a total of 60 min at room temperature and then incubated at 4 °C overnight. […] After rinsing of the secondary antibody, membranes were detected using ClarityECL Western Blotting Substrate (Bio-Rad). For quantitative determination, the StainFree technique was employed (Bio-Rad), as well as normalization, against the housekeeping protein GAPDH, which allows the imaging of whole lysates in SDS-PAGE before blotting and normalization against the total protein. […]
(In general: In western blotting, separated proteins are transferred to a membrane and probed.)

Chain of HDAC5 (Q9UQL6 whole entry, species assumed): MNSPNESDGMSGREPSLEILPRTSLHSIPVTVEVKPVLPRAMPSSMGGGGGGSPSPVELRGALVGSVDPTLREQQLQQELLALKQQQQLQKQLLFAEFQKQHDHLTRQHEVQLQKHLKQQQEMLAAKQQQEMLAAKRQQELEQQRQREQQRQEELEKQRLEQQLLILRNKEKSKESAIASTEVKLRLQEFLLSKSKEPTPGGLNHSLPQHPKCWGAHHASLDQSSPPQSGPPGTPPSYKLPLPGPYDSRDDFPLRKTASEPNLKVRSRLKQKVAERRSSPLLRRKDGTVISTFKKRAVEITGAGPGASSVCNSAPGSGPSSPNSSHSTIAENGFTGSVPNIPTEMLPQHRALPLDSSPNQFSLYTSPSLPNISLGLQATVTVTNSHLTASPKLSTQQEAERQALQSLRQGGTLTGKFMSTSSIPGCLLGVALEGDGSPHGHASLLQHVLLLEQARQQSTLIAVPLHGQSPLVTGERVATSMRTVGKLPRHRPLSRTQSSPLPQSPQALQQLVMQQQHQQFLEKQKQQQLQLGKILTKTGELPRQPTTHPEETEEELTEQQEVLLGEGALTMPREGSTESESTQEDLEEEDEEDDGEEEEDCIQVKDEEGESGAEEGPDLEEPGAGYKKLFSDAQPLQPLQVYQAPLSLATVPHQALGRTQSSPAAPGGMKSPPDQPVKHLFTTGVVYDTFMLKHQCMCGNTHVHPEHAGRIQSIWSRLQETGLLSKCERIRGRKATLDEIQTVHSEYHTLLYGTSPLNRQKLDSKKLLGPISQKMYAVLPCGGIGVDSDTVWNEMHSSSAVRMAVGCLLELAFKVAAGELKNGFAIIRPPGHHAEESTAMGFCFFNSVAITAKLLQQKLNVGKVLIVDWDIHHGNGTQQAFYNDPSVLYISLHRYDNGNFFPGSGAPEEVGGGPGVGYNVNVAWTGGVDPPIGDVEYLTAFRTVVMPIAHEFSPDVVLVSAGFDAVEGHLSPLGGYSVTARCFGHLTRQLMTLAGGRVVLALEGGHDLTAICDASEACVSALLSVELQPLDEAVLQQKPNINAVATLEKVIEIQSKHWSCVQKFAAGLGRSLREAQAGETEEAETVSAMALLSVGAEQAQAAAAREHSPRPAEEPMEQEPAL

Regarding `CCCCN(Cc1ccc(C(=O)NO)cc1)C(=O)CCCCn1cc(COc2cccc(Cc3cnc(NC(=O)CSc4nc(C)cc(C)n4)s3)c2)nn1` [Compound 33, 4-((N-Butyl-5-(4-((3-((2-(2-((4,6-dimethylpyrimidin-2-yl)thio)acetamido)thiazol-5-yl)methyl)phenoxy)methyl)-1H-1,2,3-triazol-1-yl)pentanamido)methyl)-N-hydroxybenzamide], the concentration for half-maximal inhibition (IC50) (in general, the point on the concentration scale where inhibition reaches its midpoint) against Sirt5 is more than 500 µM; on Sirt6, more than 500 µM; on HDAC5, more than 6 µM; against HDAC8, 2.94 ± 0.45 µM; against HDAC9, more than 20 µM; at HDAC10, more than 6 µM. The inhibition (as a rule, the drop in the measured response relative to a control, in per cent) at 200 µM on Sirt5 (@ 200 µM, read-out: Sirt5 percentual inhibition) is -2%; on Sirt6 (@ 200 µM, read-out: Sirt6 percentual inhibition), 0%. Besides, the inhibition at 500 µM on Sirt5 (@ 500 µM, read-out: Sirt5 percentual inhibition) was -1%; at Sirt6 (@ 500 µM, read-out: Sirt6 percentual inhibition), 10%. The inhibition at 6 µM on HDAC5 (@ 6 µM, read-out: HDAC5 percentual inhibition) worked out at 18%; on HDAC9 (@ 6 µM, read-out: HDAC9 percentual inhibition), 17%; on HDAC10 (@ 6 µM, read-out: HDAC10 percentual inhibition), 27%. Also, the inhibition at 20 µM at HDAC5 (@ 20 μM, read-out: HDAC5 percentual inhibition) was 57%; at HDAC9 (@ 20 μM, read-out: HDAC9 percentual inhibition), 37%; at HDAC10 (@ 20 μM, read-out: HDAC10 percentual inhibition), 64%. In addition, the “Histone H3 hyperacetylation (cellular class I HDAC off-target inhibition)” value in test [1] was “no significant off-target inhibition of class I”.
